Reference: PMC7770057 (Journal of medicinal chemistry, 2020)

Tests used:
[1] = test system: MEK1/2; conditions: HT-29 cells, 0.3, 1 and 3 μM; previous study; cited from earlier work
[2] = test system: SK-MEL-28 cells; test: Antiproliferation; type: cell-based; conditions: Homo sapiens, SK-MEL-28, 72 h, read-out: SK-MEL-28 GI50

Cc1ncsc1-c1ccc(CNC(=O)[C@@H]2C[C@@H](O)CN2C(=O)[C@@H](NC(=O)CCCCCCCCCCNCCCONC(=O)c2ccc(F)c(F)c2Nc2ccc(I)cc2F)C(C)(C)C)cc1 [Compound 14, (2S,4R)-1-((S)-20-(tert-Butyl)-1-(3,4-difluoro-2-((2-fluoro-4-iodophenyl)amino)phenyl)-1,18-dioxo-3-oxa-2,7,19-triazahenicosan-21-oyl)-4-hydroxy-N-(4-(4-methylthiazol-5-yl)benzyl)pyrrolidine-2-carboxamide]
MEK1/2 degradation (Western blot, words) [1]: significantly degrade MEK1/2 protein levels

CCCS(=O)(=O)Nc1ccc(F)c(C(=O)c2c[nH]c3ncc(-c4ccc(Cl)cc4)cc23)c1F [PLX4032]
GI50 [2]: ~100 nM
